# Source: ChEMBL document CHEMBL4680314, “Discovery of potent glycogen synthase kinase 3/cholinesterase inhibitors with neuroprotection as potential therapeutic agent for Alzheimer's disease” (Bioorg Med Chem, 2021)
# The source made the active and inactive calls. The calls are words filed in the database; no cut-off is given here.
# Columns and labels:
# [1] = Clearance in Sprague-Dawley rat at 5 mg/kg, iv measured upto 24 hrs by LC-MS/MS analysis; type: ADME, organism-based; details: in vivo
# Homo sapiens [2] = organism: Homo sapiens; assay: Selectivity index, ratio of IC50 for p38MAPK beta (unknown origin) to IC50 for GSK-3 beta (unknown origin) by ATP competitive based analysis
# [3] = target: Glycogen synthase kinase-3 beta (Mus musculus) (UniProt Q9WV60); assay: Inhibition of GSK3beta in mouse N2a cells overexpressing human tau assessed as tau phosphorylation at Ser396 residue at 0.67 uM incubated for 6 hrs by Western blot analysis (reference value: […] %); type: cell-based; parameters: scale not given: the % may be the effect or the level left
# [4] = target: Mitogen-activated protein kinase 9 (Homo sapiens, UniProt P45984); assay: Inhibition of JNK2 (unknown origin) by ATP competitive based analysis
# [5] = target: Mitogen-activated protein kinase 11 (Homo sapiens, UniProt Q15759); assay: Inhibition of p38MAPK beta (unknown origin) by ATP competitive based analysis
# [6] = target: Cyclin-dependent kinase 1 (Homo sapiens, UniProt P06493); assay: Inhibition of CDK1 (unknown origin) by ATP competitive based analysis
# [7] = target: Cyclin-dependent kinase 6 (Homo sapiens, UniProt Q00534); assay: Inhibition of CDK6 (unknown origin) by ATP competitive based analysis
# [8] = target: Glycogen synthase kinase-3 beta (Mus musculus) (UniProt Q9WV60); assay: Inhibition of GSK3beta in mouse N2a cells overexpressing human tau assessed as tau phosphorylation at Ser396 residue at 2 uM incubated for 6 hrs by Western blot analysis (reference value: […] %); type: cell-based; parameters: scale not given: the % may be the effect or the level left
# [9] = MRT (0 to t) in Sprague-Dawley rat at 5 mg/kg, iv measured upto 24 hrs by LC-MS/MS analysis; type: ADME, organism-based; details: in vivo
# BV-2 [10] = assay: Anti-inflammatory activity in mouse BV-2 cells assessed as reduction in LPS-induced TNFalpha production incubated for 1 hr followed by LPS stimulation and measured after 24 hrs by ELISA; type: functional, cell-based; details: dose 2-8 µM, time 25.0 hrs
# [11] = Cmax in Sprague-Dawley rat at 5 mg/kg, iv measured upto 24 hrs by LC-MS/MS analysis; type: ADME, organism-based; parameters: route intravenous, dose 5 mg/kg, time <=24; details: in vivo
# [12] = target: Glycogen synthase kinase-3 beta (Mus musculus, UniProt Q9WV60); assay: Inhibition of GSK3beta in mouse N2a cells overexpressing human tau assessed as reduction in tau phosphorylation at Ser396 residue incubated for 6 hrs by Western blot analysis; type: cell-based
# [13] = Tmax in Sprague-Dawley rat at 10 mg/kg, po measured upto 24 hrs by LC-MS/MS analysis; type: ADME, organism-based; details: in vivo
# [14] = Half life in Sprague-Dawley rat at 5 mg/kg, iv measured upto 24 hrs by LC-MS/MS analysis; type: ADME, organism-based; details: in vivo
# Homo sapiens [15] = organism: Homo sapiens; assay: Selectivity index, ratio of IC50 for p38MAPK alpha (unknown origin) to IC50 for GSK-3 beta (unknown origin) by ATP competitive based analysis
# Homo sapiens [16] = organism: Homo sapiens; assay: Selectivity index, ratio of IC50 for CDK2 (unknown origin) to IC50 for GSK-3 beta (unknown origin) by ATP competitive based analysis
# [17] = Cmax in Sprague-Dawley rat at 10 mg/kg, po measured upto 24 hrs by LC-MS/MS analysis; type: ADME, organism-based; parameters: route oral, dose 10 mg/kg, time <=24; details: in vivo
# [18] = target: Dual specificity tyrosine-phosphorylation-regulated kinase 1A (Homo sapiens, UniProt Q13627); assay: Inhibition of DYRK1A (unknown origin) by ATP competitive based analysis
# Homo sapiens [19] = organism: Homo sapiens; assay: Selectivity index, ratio of IC50 for ERK1 (unknown origin) to IC50 for GSK-3 beta (unknown origin) by ATP competitive based analysis
# BV-2 [20] = assay: Anti-inflammatory activity in mouse BV-2 cells assessed as reduction in LPS-induced IL-1beta expression at 4 uM incubated for 1 hr followed by LPS stimulation and measured after 24 hrs by immunofluorescence based laser confocal microscopy; type: functional, cell-based; details: time 25.0 hrs
# N2a = assay: Effect on tau protein level in mouse N2a cells overexpressing human tau at 0.074 to 6 uM incubated for 6 hrs by Western blot analysis; type: functional, cell-based; details: dose 0.074-6 µM
# BV-2 [21] = assay: Anti-inflammatory activity in mouse BV-2 cells assessed as reduction in LPS-induced ROS production at 3 uM incubated for 1 hr followed by LPS stimulation and measured after 24 hrs by DCFH-DA staining based inverted fluorescence microscopy; type: functional, cell-based; details: time 25.0 hrs
# Cholinesterase = Cholinesterase (Homo sapiens, UniProt P06276); assay: Inhibition of human BChE using butyrylthiocholineiodide as substrate incubated for 10 mins by Ellman's method
# [22] = Ratio of drug level in ICR mouse brain to blood at 15 mg/kg, po measured after 90 mins by LC-MS/MS analysis; type: ADME, organism-based; details: 1.5 h
# [23] = AUC (0 to 24 hrs) in Sprague-Dawley rat at 5 mg/kg, iv measured upto 24 hrs by LC-MS/MS analysis; type: ADME, organism-based; parameters: route intravenous, dose 5 mg/kg, time <=24; details: in vivo
# in vitro = details: PAMPA
# Description: Effective permeability of compound in PBS/EtOH buffer (7:3) at 25 ug/ml incubated for 18 hrs by PAMPA-BBB assay
# Homo sapiens [24] = organism: Homo sapiens; assay: Selectivity index, ratio of IC50 for p38MAPK gamma (unknown origin) to IC50 for GSK-3 beta (unknown origin) by ATP competitive based analysis
# [25] = target: Cyclin-dependent kinase 7 (Homo sapiens, UniProt P50613); assay: Inhibition of CDK7 (unknown origin) by ATP competitive based analysis
# Homo sapiens [26] = organism: Homo sapiens; assay: Selectivity index, ratio of IC50 for JNK3 (unknown origin) to IC50 for GSK-3 beta (unknown origin) by ATP competitive based analysis
# [27] = Tmax in Sprague-Dawley rat at 5 mg/kg, iv measured upto 24 hrs by LC-MS/MS analysis; type: ADME, organism-based; details: in vivo
# [28] = target: Cyclin-dependent kinase 4 (Homo sapiens, UniProt P11802); assay: Inhibition of CDK4 (unknown origin) by ATP competitive based analysis
# Homo sapiens [29] = organism: Homo sapiens; assay: Selectivity index, ratio of IC50 for p38MAPK delta (unknown origin) to IC50 for GSK-3 beta (unknown origin) by ATP competitive based analysis
# [30] = target: Dual specificity tyrosine-phosphorylation-regulated kinase 1B (Homo sapiens, UniProt Q9Y463); assay: Inhibition of DYRK1B (unknown origin) by ATP competitive based analysis
# [31] = AUC (0 to infinity) in Sprague-Dawley rat at 5 mg/kg, iv by LC-MS/MS analysis; type: ADME, organism-based; parameters: route intravenous, dose 5 mg/kg; details: in vivo
# [32] = Volume of distribution in Sprague-Dawley rat at 10 mg/kg, po measured upto 24 hrs by LC-MS/MS analysis; type: ADME, organism-based; details: in vivo
# Sequence of Glycogen synthase kinase-3 beta (Mus musculus) (Q9WV60 whole entry, looked up): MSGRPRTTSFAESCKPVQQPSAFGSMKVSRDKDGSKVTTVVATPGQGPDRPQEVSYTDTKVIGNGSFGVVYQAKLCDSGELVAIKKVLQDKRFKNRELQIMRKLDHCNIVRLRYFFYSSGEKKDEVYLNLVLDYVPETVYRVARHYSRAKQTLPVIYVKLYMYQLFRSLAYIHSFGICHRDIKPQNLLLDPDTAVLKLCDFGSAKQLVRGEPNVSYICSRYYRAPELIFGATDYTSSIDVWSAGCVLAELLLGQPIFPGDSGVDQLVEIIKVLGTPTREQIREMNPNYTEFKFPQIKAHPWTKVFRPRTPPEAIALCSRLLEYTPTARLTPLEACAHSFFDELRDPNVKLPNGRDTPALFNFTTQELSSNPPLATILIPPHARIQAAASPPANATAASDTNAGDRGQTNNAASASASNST
# Sequence of Cyclin-dependent kinase 1 (P06493 whole entry): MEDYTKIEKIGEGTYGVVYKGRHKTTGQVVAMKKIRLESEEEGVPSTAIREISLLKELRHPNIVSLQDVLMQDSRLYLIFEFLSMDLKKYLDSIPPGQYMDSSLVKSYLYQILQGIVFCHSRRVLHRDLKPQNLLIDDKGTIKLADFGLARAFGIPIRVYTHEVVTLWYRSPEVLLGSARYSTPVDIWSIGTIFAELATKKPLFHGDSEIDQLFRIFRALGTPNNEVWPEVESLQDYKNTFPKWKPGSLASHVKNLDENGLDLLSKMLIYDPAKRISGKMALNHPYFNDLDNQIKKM
# Sequence of Mitogen-activated protein kinase 11 (Q15759 whole entry): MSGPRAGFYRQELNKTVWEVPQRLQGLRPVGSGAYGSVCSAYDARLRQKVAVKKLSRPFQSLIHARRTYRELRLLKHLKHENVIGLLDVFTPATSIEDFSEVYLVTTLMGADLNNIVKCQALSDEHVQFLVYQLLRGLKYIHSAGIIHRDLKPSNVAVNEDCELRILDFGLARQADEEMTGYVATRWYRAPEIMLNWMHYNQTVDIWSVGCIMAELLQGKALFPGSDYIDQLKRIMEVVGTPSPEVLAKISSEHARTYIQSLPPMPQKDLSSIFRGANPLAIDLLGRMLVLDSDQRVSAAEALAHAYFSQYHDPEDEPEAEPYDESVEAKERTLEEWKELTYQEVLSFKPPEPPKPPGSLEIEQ
# Sequence of Cholinesterase (P06276 whole entry): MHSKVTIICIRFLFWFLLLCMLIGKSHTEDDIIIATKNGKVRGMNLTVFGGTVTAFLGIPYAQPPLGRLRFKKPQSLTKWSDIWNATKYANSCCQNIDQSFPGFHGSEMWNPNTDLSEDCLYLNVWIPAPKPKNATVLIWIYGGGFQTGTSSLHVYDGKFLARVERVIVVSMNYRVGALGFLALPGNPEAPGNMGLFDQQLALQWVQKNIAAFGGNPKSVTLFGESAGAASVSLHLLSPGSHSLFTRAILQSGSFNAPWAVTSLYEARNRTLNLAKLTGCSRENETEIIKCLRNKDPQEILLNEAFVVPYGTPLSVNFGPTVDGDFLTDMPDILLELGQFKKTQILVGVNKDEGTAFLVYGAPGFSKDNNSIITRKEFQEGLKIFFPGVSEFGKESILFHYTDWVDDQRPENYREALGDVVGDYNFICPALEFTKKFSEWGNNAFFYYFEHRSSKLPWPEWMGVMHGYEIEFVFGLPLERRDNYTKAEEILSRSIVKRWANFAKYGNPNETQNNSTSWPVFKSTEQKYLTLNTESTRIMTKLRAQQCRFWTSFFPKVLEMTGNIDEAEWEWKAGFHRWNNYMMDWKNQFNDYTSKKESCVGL
# Sequence of Dual specificity tyrosine-phosphorylation-regulated kinase 1B (Q9Y463 whole entry): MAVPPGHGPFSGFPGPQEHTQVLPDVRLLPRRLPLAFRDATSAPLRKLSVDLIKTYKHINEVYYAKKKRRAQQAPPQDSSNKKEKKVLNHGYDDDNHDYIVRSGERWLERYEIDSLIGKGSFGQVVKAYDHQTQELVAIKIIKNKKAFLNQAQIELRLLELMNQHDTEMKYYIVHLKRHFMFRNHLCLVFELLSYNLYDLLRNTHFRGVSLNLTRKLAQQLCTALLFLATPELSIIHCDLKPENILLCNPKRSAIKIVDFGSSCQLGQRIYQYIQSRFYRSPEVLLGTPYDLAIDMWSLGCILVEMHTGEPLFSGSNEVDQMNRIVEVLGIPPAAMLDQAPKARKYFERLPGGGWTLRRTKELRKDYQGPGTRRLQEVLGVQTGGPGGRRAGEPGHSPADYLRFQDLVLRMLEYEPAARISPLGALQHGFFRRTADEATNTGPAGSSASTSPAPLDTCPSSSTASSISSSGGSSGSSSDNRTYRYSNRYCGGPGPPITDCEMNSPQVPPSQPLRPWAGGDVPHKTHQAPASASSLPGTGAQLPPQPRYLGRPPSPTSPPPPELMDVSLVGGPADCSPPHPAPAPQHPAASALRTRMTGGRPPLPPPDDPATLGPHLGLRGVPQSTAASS
# Sequence of Cyclin-dependent kinase 6 (Q00534 whole entry): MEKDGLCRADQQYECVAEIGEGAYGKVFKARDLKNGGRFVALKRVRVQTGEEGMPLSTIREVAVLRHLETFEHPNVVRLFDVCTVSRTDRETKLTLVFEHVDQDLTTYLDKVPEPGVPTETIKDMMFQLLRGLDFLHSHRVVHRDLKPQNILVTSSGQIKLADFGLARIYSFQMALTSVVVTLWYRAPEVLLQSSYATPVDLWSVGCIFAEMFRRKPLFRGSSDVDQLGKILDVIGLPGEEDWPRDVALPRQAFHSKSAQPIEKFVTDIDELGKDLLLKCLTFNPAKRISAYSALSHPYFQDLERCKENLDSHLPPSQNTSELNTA
# Sequence of Mitogen-activated protein kinase 9 (P45984 whole entry): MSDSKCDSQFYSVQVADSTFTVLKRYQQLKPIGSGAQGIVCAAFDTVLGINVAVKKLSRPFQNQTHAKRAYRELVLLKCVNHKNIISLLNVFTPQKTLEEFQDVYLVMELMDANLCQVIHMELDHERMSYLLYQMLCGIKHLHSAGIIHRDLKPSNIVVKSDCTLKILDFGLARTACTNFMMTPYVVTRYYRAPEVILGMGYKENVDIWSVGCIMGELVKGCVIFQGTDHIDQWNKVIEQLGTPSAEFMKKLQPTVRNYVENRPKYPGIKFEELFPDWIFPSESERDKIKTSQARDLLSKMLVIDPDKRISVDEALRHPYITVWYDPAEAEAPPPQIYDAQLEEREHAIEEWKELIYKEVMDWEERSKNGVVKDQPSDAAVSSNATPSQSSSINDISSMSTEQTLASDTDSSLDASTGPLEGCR
# Sequence of Cyclin-dependent kinase 7 (P50613 whole entry): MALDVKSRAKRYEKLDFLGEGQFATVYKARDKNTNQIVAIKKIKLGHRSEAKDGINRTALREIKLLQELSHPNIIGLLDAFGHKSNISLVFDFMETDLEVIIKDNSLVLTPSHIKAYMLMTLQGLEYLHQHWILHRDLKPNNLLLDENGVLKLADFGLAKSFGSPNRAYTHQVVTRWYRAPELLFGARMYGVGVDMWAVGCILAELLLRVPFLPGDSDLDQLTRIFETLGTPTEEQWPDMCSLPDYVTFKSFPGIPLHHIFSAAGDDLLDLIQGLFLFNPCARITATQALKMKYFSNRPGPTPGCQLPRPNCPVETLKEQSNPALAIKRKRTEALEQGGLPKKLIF
# Sequence of Cyclin-dependent kinase 4 (P11802 whole entry): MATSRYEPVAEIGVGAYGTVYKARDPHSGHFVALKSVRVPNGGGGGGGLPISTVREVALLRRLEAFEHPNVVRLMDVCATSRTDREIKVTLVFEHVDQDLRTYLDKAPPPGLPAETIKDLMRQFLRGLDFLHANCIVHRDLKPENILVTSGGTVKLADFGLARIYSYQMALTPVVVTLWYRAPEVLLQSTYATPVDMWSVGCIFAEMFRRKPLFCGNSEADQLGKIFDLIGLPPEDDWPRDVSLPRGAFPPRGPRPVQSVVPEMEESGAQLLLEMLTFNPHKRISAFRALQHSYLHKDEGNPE
# Sequence of Glycogen synthase kinase-3 beta (Q9WV60 whole entry): as the sequence (Q9WV60 whole entry, looked up) above
structure (smiles),measurement,setting,value
NC(=O)c1sc(-c2ccnc(NC(=O)C3CC3)c2)nc1OCCCC1CCN(Cc2ccc(F)cc2)CC1,clearance,[1],42.5 mL/min/kg
same,Ratio IC50,Homo sapiens [2],200
same,Activity,[3],32.9%
same,IC50,[4],> 300 nM
same,IC50,[5],> 300 nM
same,IC50,[6],> 300 nM
same,IC50,[7],> 300 nM
same,Activity,[8],14.3%
same,MRT last at 24 h,[9],3.3 h
same,Activity,BV-2 [10],Dose-dependent effect
same,Cmax,[11],1000 ng/mL
same,DC50,[12],380 nM
same,Tmax,[13],4.7 h
same,half-life,[14],4.3 h
same,Ratio IC50,Homo sapiens [15],200
same,Ratio IC50,Homo sapiens [16],200
same,Cmax,[17],132 ng/mL
same,IC50,[18],8.1 nM
same,Ratio IC50,Homo sapiens [19],200
same,Activity,BV-2 [20],Active
same,Activity,N2a,inactive
same,Activity,BV-2 [21],Active
same,IC50,Cholinesterase,3410 nM
same,Ratio,[22],21.6 ng/kg
same,AUC(0-t),[23],1960 ng·h/mL
same,"Papp at 18 h, 25 ug/ml",in vitro,8.4 ×10⁻⁶ cm/s
same,Ratio IC50,Homo sapiens [24],200
same,IC50,[25],> 300 nM
same,Ratio IC50,Homo sapiens [26],200
same,Tmax,[27],4.98 min
same,IC50,[28],> 300 nM
same,Ratio IC50,Homo sapiens [29],200
same,IC50,[30],37.8 nM
same,AUC(0-inf),[31],1980 ng·h/mL
same,Vd,[32],60.7 L/kg
